Experimental data reported in US12551578B2, “Compound or salt thereof” (SHIZUOKA PREFECTURAL UNIVERSITY CORPORATION, priority 2019, dated 2026).

Key:
bovine thymus DNA [1] = assay: DNA intercalation analysis by fluorescence intensity on mixing with DNA; type: binding; conditions: for intercalation into DNA judged from fluorescence intensity: FIG. 4 and Table 1; for Fluorescence intensity ratio (DNA20/DNA0): compound 10 μg/mL in 0.1 M Tris-HCl pH 7.5, DNA 20 μg/mL versus 0 μg/mL
Description: Since the fluorescence intensity was improved due to intercalation of the compound between base pairs of DNA, the fluorescence intensity was measured by mixing DNA and the compound. First, the compounds shown in Table 1 were dissolved in a 0.1 M Tris-HCl buffer solution (pH 7.5) at 10 μg/mL, and bovine thymus DNA was added thereto at 0 μg/mL, 5 μg/mL, 10 μg/mL or 20 μg/mL to prepare measurement samples. Then, the fluorescence intensity of each measurement sample was measured (excitation wavelength 355 to 536 nm, fluorescence wavelength of 420 to 605 nm). In Table 1, the fluorescence intensity ratio is a ratio (DNA20/DNA0) of the fluorescence intensity (DNA20) when the DNA concentration was 20 μg/mL and the fluorescence intensity (DNA0) when the DNA concentration was 0 μg/mL.

bovine thymus DNA [2] = assay: DNA intercalation analysis by shift of absorption wavelength (bathochromic effect); type: binding; conditions: for Absorption wavelength difference: DNA 30 μg/mL versus 0 μg/mL; for intercalation into DNA judged from absorption wavelength shift: Table 2; for DNA0: Absorption wavelength when DNA concentration was 0 μg/mL / DNA30: Absorption wavelength when DNA concentration was 30 μg/mL: compound 10 μg/mL in 0.1 M Tris-HCl, peak top wavelength
Description: In addition, since the absorption spectrum shifted to the long wavelength side due to intercalation of the compound between base pairs of DNA (bathochromic effect), the shift of the absorption wavelength was measured by mixing DNA and the compound. Specifically, the compounds shown in Table 2 were dissolved in a 0.1 M Tris-HCl buffer solution at 10 μg/mL, and bovine thymus DNA was added thereto at 0 μg/mL or 30 μg/mL to prepare measurement samples. Then, the absorption spectrum of each measurement sample was measured, and the absorption wavelength (peak top wavelength) was determined.

[3] = Quantum yield and molar absorption coefficient (Table 1); type: physicochemical
[4] = system: reactive oxygen species in the brain (right striatum); assay: PET measurement of probe accumulation in SNP model rats; type: in vivo, rat; conditions: for ratio of radioactivity accumulated amount (SUV) between right striatum (SNP) and left striatum (control): 20 MBq i.v. bolus, 30-45 minutes after administration, FIGS. 2(E) and 2(F)
Description: Accumulation of [^18F]FHM, [^18F]FPHM and [^11C]HM was analyzed using rats in which reactive oxygen species were produced in the brain (right striatum) to which sodium nitroprusside (SNP) has been administered.
While rats were anesthetized with 1.5-2.0% isoflurane (dilution gas:oxygen), 4 μL of a 20 nmol/μL SNP solution (saline) was injected into the right striatum of the rat at a rate of 0.8 μL/min using a Hamilton syringe (26 gauge). 4 μL of a saline was injected into the left striatum in the same method. PET measurement was performed on SNP-administered rats (SNP model rats) 60 minutes after SNP administration.
After transmission measurement was performed for 15 minutes for absorption correction, a bolus of 20 MBq [^18F]FHM, [^18F]FPHM or [^11C]HM was administered from the caudal vein of the rat, and emission measurement was performed for 90 minutes. After PET measurement was completed, the PET accumulation images of the brain 0-15 minutes, 15-30 minutes, 30-45 minutes, 45-60 minutes, 60-75 minutes, and 75-90 minutes after [^18F]FHM, [^18F]FPHM or [^11C]HM was administered were superimposed on the brain CT images. Regions of interest were set on the PET images of the right striatum and the left striatum identified from the X-CT images, and the value normalized according to the body weight of each individual subject and the administered radioactivity amount was used as the amount of [^18F]FHM, […] or […] accumulated at each site (radioactivity accumulated amount (SUV)) (each group, 5 rats).
In addition, as a control, PET measurement was performed on rats in which only a saline was administered to both the right striatum and the left striatum (control rat) in the same method as above.

[5] = system: reactive oxygen species in the brain (right striatum); assay: Brain fluorescence imaging in SNP model rats; type: in vivo, rat; conditions: 5 mg/kg i.v. bolus, brain extracted 1 hour after administration, compared to DHE, FIG. 5
Description: 4 μL of a 20 nmol/μL SNP solution (phosphate buffered saline (PBS) solution) was injected into the right striatum of the rat at a rate of 0.8 μL/min using a Hamilton syringe (26 gauge). 4 μL of PBS was injected into the left striatum in the same method. A bolus of 5 mg/kg DHE or isopropyl reduced component was administered from the caudal vein of the rat 60 minutes after SNP administration for SNP-administered rats (SNP model rats). The brain was extracted 1 hour after administration and a 20 μm-thick frozen section was prepared. Brain fluorescence images were obtained by a scanner type image analysis device (FLA700: excitation wavelength of 532 nm, filter 580 nm).

| SMILES | intercalation into DNA judged from fluorescence intensity (bovine thymus DNA [1]) | Fluorescence intensity ratio (DNA20/DNA0) (bovine thymus DNA [1]) | Absorption wavelength difference (bovine thymus DNA [2]) [nm] | intercalation into DNA judged from absorption wavelength shift (bovine thymus DNA [2]) | DNA0: Absorption wavelength when DNA concentration was 0 μg/mL (bovine thymus DNA [2]) [nm] | DNA30: Absorption wavelength when DNA concentration was 30 μg/mL (bovine thymus DNA [2]) [nm] | ε · ϕ (molar absorption coefficient x quantum yield) [3] | ϕ: quantum yield [3] | ratio of radioactivity accumulated amount (SUV) between right striatum (SNP) and left striatum (control) [4] | radioactivity accumulated amount in the right striatum, comparison of probes ([4]; FIGS. 2(A) and 2(B)) | accumulation in the right striatum to which SNP has been administered (brain fluorescence images) [5] |
| --- | --- | --- | --- | --- | --- | --- | --- | --- | --- | --- | --- |
| CN1c2cc(NC3CCC3)ccc2-c2ccc(NC3CCC3)cc2C1c1ccccc1 (stereo not drawn) [Cyclobutyl form] | almost no intercalation into DNA occurred | 1.62 | 18 | almost no intercalation into DNA occurred | 557 | 575 | 47.04 | 3.62 10^−3 |  |  |  |
| CC(C)N(c1ccc2c(c1)C(c1ccccc1)N(C)c1cc(N(C(C)C)C(C)C)ccc1-2)C(C)C (stereo not drawn) [Di-isopropyl form] | almost no intercalation into DNA occurred | 0.759 | 4 | almost no intercalation into DNA occurred | 559 | 563 | 118.8 | 8.48 10^−3 |  |  |  |
| CC(C)Nc1ccc2c(c1)C(c1ccccc1)N(C)c1cc(NC(C)C)ccc1-2 (stereo not drawn) [Isopropyl form] | almost no intercalation into DNA occurred | 0.996 | 8 | almost no intercalation into DNA occurred | 517 | 525 | 568.8 | 40.6 10^−3 |  |  |  |
| C[n+]1c(-c2ccccc2)c2cc(N)ccc2c2ccc(N)cc21 [Methidium, reference compound] | intercalation into DNA occurred | 3.03 | 40 | intercalation into DNA occurred | 481 | 521 | 97.34 | 2.68 10^−3 |  |  |  |
| [11CH3]N1c2cc(N)ccc2-c2ccc(N)cc2C1c1ccccc1 (stereo not drawn) [[^11C]HM, reference compound] |  |  |  |  |  |  |  |  | about 3 times |  |  |
| CN1c2cc(N)ccc2-c2ccc(N)cc2C1c1ccc([18F])cc1 (stereo not drawn) [[^18F]FHM] |  |  |  |  |  |  |  |  | about 5 times | larger in [^18F]FHM than in [^11C]HM |  |
| CC(C)Nc1ccc2c(c1)C(c1ccc(F)cc1)N(C)c1cc(NC(C)C)ccc1-2 (stereo not drawn) [isopropyl reduced component] |  |  |  |  |  |  |  |  |  |  | a large amount of accumulation in the right striatum |
